The term pIC50 denotes −log10 of the IC50, conventionally taken in molar units.

One assay deals with p-MAPKAPK2. The assay can be described thus: Inhibition of p-MAPKAPK2 in vitro, anisomycin-stimulated RAW 264.7 cells, ELISA. The assay is classed as cell-based, murine. The settings on record: Mus musculus, RAW264.7, read-out: IC50, inhibition of p-MAPKAPK2 in vitro. On the procedure:
RAW 264.7 cells (a murine monocytic/macrophage line ATCC) are seeded at a density of 50,000 cells/well in 96-well plates with RPMI-1640 medium plus 10% fetal bovine serum (FBS) and allowed to settle and adhere to the bottom of the well for 48 hours. After reaching confluence, cells are treated for 2 hours with 10 serial dilutions of different compounds. A control compound is always included. After 2 hours, anisomicin (100 ug/ml) is added and cells are incubated for 30 minutes at 37° C. under a 5% CO2 atmosphere. Then, cells are fixed and treated with hydrogen peroxide in order to remove endogenous peroxidase. Finally, plates are blocked with FBS, washed, and an ELISA assay is carried out by using an antiphospho-MAPKAPK (Thr 334, Cell Signalling, Cat # 3041) antibody and ahP-Conjugated Secondary Antibody. This reaction is detected by using FEMTO (Pierce) which is an enhanced chemiluminiscent substrate ahP that results in rapid kinetic light output and high signal intensity.
(In general: ELISA stands for enzyme-linked immunosorbent assay.)

Assay [1] concerns TNFα. The assay can be described thus: Inhibition of TNFα in vivo, LPS challenged mice, plasma ELISA. The note with it: female Balb/c mice, p.o., LPS IP 400 μg/kg 1 hour after compound, plasma 1.5 hours after LPS. The protocol:
Compounds are administered p.o. (30, 10, 3 and 1 mg/kg) to female Balb/c mice (6 mice/dose). 1 hour following compound administration at 4 doses (P.O. at volume of 0.1 mL/mouse; vehicle: 1% NaCMC/0.25% Tween-80 in water); mice are given an IP-injection of LPS at 400 μg/kg. 1.5 hours after LPS challenging, mice are anesthetized with isoflurane and blood is taken via cardiac puncture. TNFα-levels in the plasma are determined using ELISA kit from R&D Systems and dose response ED50 is determined.
The Threshold Minimum Effective Dose (TMED) 50 is the dose at which greater than or equal to 50% inhibition was achieved and statistically different from control/placebo.

The test system of assay [2] is TNFα. The assay can be described thus: Effect on intra-articular LPS induced TNFα in rat ankle synovial lavage fluid. It counts as in vivo. The settings on record: female Lewis rats, orally, intra-articular LPS 10 μg one hour later, lavage after two hours. On the procedure:
Intra-articular injection of LPS into rat ankles induces the synthesis of TNFα, which can be measured in synovial lavage fluid. High levels of TNFα are detectable within 2 hours. Since the joint is the site where arthritis develops, this model can rapidly determine whether an orally administered compound has an effect on an inflammatory response in the synovium.
Six female Lewis rats (150-200 g) are place in each treatment group. The animals are given vehicle (1% NaCarboxymethylcellulose-0.25% Tween 80) or test compound
(1 mg/kg, 3 mg/kg, 10 mg/kg, and 30 mg/kg) orally. One hour later, 10 μl LPS (10 μg) is administered intra-articularly into the right ankle of each rat, while the left ankle receives 10 μL of saline. After two hours, each ankle is lavaged with 100 μL of saline. The lavage is collected and stored at −80° C. • Group #1: Vehicle (1% NaCMC-0.25% Tween 80, 1 mL, PO) • Group #2: Test compound (1 mg/kg, 1 mL, PO) • Group #3: Test compound (3 mg/kg, 1 mL, PO) • Group #4: Test compound (10 mg/kg, 1 mL, PO) • Group #5: Test compound (30 mg/kg, 1 mL, PO)
TNFα is measured with a commercially available ELISA kit (R&D, RTA00).

The test system of assay [3] is collagen induced arthritis. Nature of the assay: Rat collagen induced arthritis efficacy model. It counts as in vivo. The settings on record: female Lewis rats, PO, bid for 14 days. The protocol:
Female Lewis rats (≈190 g, Charles River Labs) are immunized with Bovine type II collagen (2 mg/mL) emulsified with an equal volume of adjuvant (aluminum hydroxide). are used. The rats are immunized with approximately […] of the emulsion intradermally on the back near the base of the tail. All animals are re-immunized 7 days later according to the same protocol. The rats begin to develop arthritis (characterized by swelling and redness of one or both ankles) from 12 to 14 days after the first immunization. The rats are equally distributed into five treatment groups at the first signs of arthritis and treatment is initiated with each rat dosed bid for 14 days.
Group 1 Vehicle (1% NaCarboxymethylcellulose+0.25% Tween 80) 1 mL, PO,
• Bid×14 days • Group 2 Test compound, 5 mg/kg, 1 mL, PO, Bid×14 • Group 3 Test compound, 15 mg/kg, 1 mL, PO, Bid×14 • Group 4 Test compound, 30 mg/kg, 1 mL, PO, Bid×14 • Group 5 Prednisolone 10 mg/kg, 1 mL, PO, qd×14 Ankle diameter is measured with calipers 5 days a week and recorded. Data is expressed as the area under the curve (AUC) generated from the composite inflammation scores and statistical analysis performed.

pIC50: −log10 of the molar value.

With `CS(=O)(=O)O.Cc1ccc(-n2nc(C(C)(C)C)cc2NC(=O)Nc2ccc(N3CCN(C(=O)c4c(F)cccc4F)CC3)nc2C)cc1` [Example 5, 1-(5-tert-Butyl-2-p-tolyl-2H-pyrazol-3-yl)-3-{6-[4-(2,6-difluoro-benzoyl)-piperazin-1-yl]-2-methyl-pyridin-3-yl}-urea methanesulfonate], the pIC50 with p-MAPKAPK2 was 8.35. For the same compound, the “TMED50, suppression of TNFα in vivo” value in the assay on TNFα [1] amounted to 2.24 mg/kg. The “TMED50, inhibition of TNFα synthesis in synovial lavage fluid” value in the assay with TNFα [2] turned out to be 3.57 mg/kg. Further, in assay [3], the “histology TMED 50” value is 5 mg/kg bid.
